According to US20130143929A1, “FUNGICIDAL IMIDAZOLES” (EI DU PONT DE NEMOURS AND COMPANY, priority 2010, published 2013):
Marks after values point to notes of the source that are not given here.

Assays:
Assay type in all cases: in vivo
[1] = system: Botrytis cinerea (the causal agent of tomato Botrytis); assay: Test C: tomato Botrytis, preventive spray on tomato seedlings, visual disease rating; conditions: for Test C rating (100 = 100% disease control, 0 = no disease control relative to the controls): tomato Botrytis, preventive spray on tomato seedlings; for Test C rating (% disease control, tomato Botrytis): 100 = 100% disease control
Outline: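 Preventive test: B. cinerea spore inoculation one day after tomato seedlings were sprayed to run-off with compound suspended in 50/50 acetone–water plus 250 ppm surfactant. Plants held 48 h at 20° C in saturated air, then 3 days at 24° C; visual ratings scored 100 (full control) to 0 versus controls; some entries used 40 ppm.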

[2] = system: Puccinia recondite f. sp. tritici (the causal agent of wheat leaf rust); assay: Test A: wheat leaf rust, preventive spray on wheat seedlings, visual disease rating; conditions: for Test A rating (100 = 100% disease control, 0 = no disease control relative to the controls): wheat leaf rust, preventive spray on wheat seedlings; for Test A rating (% disease control, wheat leaf rust): 100 = 100% disease control
Outline: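 This was a preventive test: Puccinia recondite f. sp. tritici inoculum was applied one day after compound spray to run-off. Test suspensions were made in 50/50 acetone/water with 250 ppm surfactant, at 200 ppm (800 g/ha equivalent) or 40 ppm. Visual ratings of % disease control relative to controls were made after 24 h of saturated humidity and 7 growth-chamber days, all at 20° C.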

[3] = system: Blumeria graminis f. sp. tritici (also known as Erysiphe graminis f. sp. tritici, the causal agent of wheat powdery mildew); assay: Test D: wheat powdery mildew, preventive spray on wheat seedlings, visual disease rating; conditions: for Test D rating (100 = 100% disease control, 0 = no disease control relative to the controls): wheat powdery mildew, preventive spray on wheat seedlings; for Test D rating (% disease control, wheat powdery mildew): 100 = 100% disease control
Outline: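 Preventive test: seedlings sprayed to run-off and inoculated with powdery mildew spores one day later. Suspensions were made in 50/50 acetone/water with 250 ppm Trem 014 surfactant (200 ppm equals 800 g/ha). Visual ratings after 8 days at 20 °C give percent disease control versus controls.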

[4] = system: Septoria tritici (the causal agent of wheat leaf blotch); assay: Test B: wheat leaf blotch, preventive spray on wheat seedlings, visual disease rating; conditions: for Test B rating (100 = 100% disease control, 0 = no disease control relative to the controls): wheat leaf blotch, preventive spray on wheat seedlings; for Test B rating (% disease control, wheat leaf blotch): 100 = 100% disease control
Outline: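 Preventive test: Septoria tritici spores applied one day after run-off spraying of seedlings (200 ppm equals 800 g/ha; some tests 40 ppm). After 48 h at 24 °C saturated atmosphere and 19 days at 20 °C, disease scored visually as % control relative to untreated plants.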

[5] = asterisk: 40 ppm test suspension
[6] = no asterisk (standard test suspension concentration, not 40 ppm)
[7] = no asterisk: standard test suspension concentration, 0 = no control relative to controls
[8] = asterisk: 40 ppm test suspension, 0 = no control

| Structure (SMILES) | Test C rating (100 = 100% disease control, 0 = no disease control relative to the controls) [1, 5] | Test A rating (100 = 100% disease control, 0 = no disease control relative to the controls) [2, 5] | Test D rating (100 = 100% disease control, 0 = no disease control relative to the controls) [3, 5] | Test B rating (100 = 100% disease control, 0 = no disease control relative to the controls) [4, 5] | Test C rating (100 = 100% disease control, 0 = no disease control relative to the controls) [1, 6] [%] | Test A rating (100 = 100% disease control, 0 = no disease control relative to the controls) [2, 6] [%] | Test D rating (100 = 100% disease control, 0 = no disease control relative to the controls) [3, 6] [%] | Test B rating (100 = 100% disease control, 0 = no disease control relative to the controls) [4, 6] [%] | other results |
| --- | --- | --- | --- | --- | --- | --- | --- | --- | --- |
| COc1cc(F)c(C(O)c2c(Br)nc(C)n2-c2c(F)cccc2F)c(F)c1 (stereo not drawn) [compound 147] | 99* % | 100* % | 0* % | 100* % |  |  |  |  |  |
| Cc1nc(Cl)c(C(O)c2ccc(Cl)cc2)n1-c1ccc(Cl)cc1Cl (racemic) [compound 244] | 78* % | 98* % | 21* % | 100* % |  |  |  |  |  |
| OC(c1ccc(F)cc1F)c1c(Cl)nc(Cl)n1-c1ccc(Cl)cc1Cl (single isomer, unassigned) [compound 22] |  |  |  |  | 98 | 100 | 0 | 100 |  |
| OC(c1ccc(F)cc1Cl)c1c(Br)ncn1-c1ccc(F)cc1Cl (racemic) [compound 215] | 55* % | 92* % | 0* % | 85* % |  |  |  |  |  |
| Cc1nc(Br)c(C(O)c2ccc(F)cc2F)n1-c1c(F)cc(F)cc1Br (stereo not drawn) [compound 394] |  |  |  |  |  |  |  |  | Test C rating (% disease control, tomato Botrytis) [1, 7]: 100%; Test A rating (% disease control, wheat leaf rust) [2, 7]: 100%; Test D rating (% disease control, wheat powdery mildew) [3, 7]: 72%; Test B rating (% disease control, wheat leaf blotch) [4, 7]: 100% |
| COc1cc(F)c(C(O)c2c(Br)nc(C)n2-c2ccc(F)cc2Cl)c(F)c1 (stereo not drawn) [compound 364] |  |  |  |  | 100 | 100 | 95 | 100 |  |
| Cc1cc(C#N)ccc1C(O)c1c(Br)nc(C)n1-c1c(F)cccc1F (stereo not drawn) [compound 165] | 8* % | 80* % | 13* % | 100* % |  |  |  |  |  |
| Cc1nc(Br)c(C(O)c2ccc(Cl)cc2)n1-c1ccc(F)cc1Br (stereo not drawn) [compound 172] |  |  |  |  | 100 | 100 | 90 | 100 |  |
| COc1ccc(C(O)c2c(Br)ncn2-c2c(F)cccc2F)c(Cl)c1 (stereo not drawn) [Compound 274, 4-bromo-1-(2,6-difluorophenyl)-α-(2-chloro-4-methoxyphenyl)-1H-imidazole-5-methanol] |  |  |  |  | 0 | 100 | 64 | 97 |  |
| OC(c1ccc(F)cc1F)c1c(Br)ncn1-c1c(F)cc(Cl)cc1F (stereo not drawn) [compound 119] | 97* % | 98* % | 0* % | 100* % |  |  |  |  |  |
| Cc1ncc(C(O)c2ccc(F)cc2Cl)n1-c1c(F)cc(Cl)cc1F (stereo not drawn) [compound 115] | 97* % | 100* % | 0* % | 96* % |  |  |  |  |  |
| Cc1nc(Cl)c(C(O)c2ccc(F)cc2Br)n1-c1ccc(F)cc1Cl (racemic) [compound 272] | 93* % | 100* % | 21* % | 100* % |  |  |  |  |  |
| Cc1ncc(C(O)c2ccc(Cl)cc2)n1-c1ccc(F)cc1Cl (stereo not drawn) [compound 57] |  |  |  |  | 34 | 96 | 0 | 100 |  |
| Cc1cc(F)ccc1C(O)c1c(Cl)nc(Cl)n1-c1ccc(Cl)cc1Cl (single isomer, unassigned) [compound 84] |  |  |  |  | 0 | 96 | 0 | 100 |  |
| Cc1cc(F)ccc1C(O)c1c(C)nc(Cl)n1-c1ccc(F)cc1F (stereo not drawn) [compound 104] |  |  |  |  | 99 | 100 | 97 | 100 |  |
| COc1ccc(C(O)c2cnc(CCl)n2-c2c(F)cc(F)cc2Br)c(Cl)c1 (stereo not drawn) [compound 352] |  |  |  |  | 99 | 100 | 95 | 100 |  |
| Cc1ccc(C(O)c2c(Cl)nc(C)n2-c2c(F)cccc2F)c(C)c1 (stereo not drawn) [compound 191] | 80* % | 100* % | 99* % | 100* % |  |  |  |  |  |
| OC(c1ccc(F)cc1Br)c1cnc(C2CC2)n1-c1c(F)cccc1Br (stereo not drawn) [compound 95] |  |  |  |  | 0 | 0 | 0 | 0 |  |
| Cc1nc(Br)c(C(O)c2ccc(F)cc2Br)n1-c1c(F)cccc1F (stereo not drawn) [compound 384] |  |  |  |  |  |  |  |  | Test C rating (% disease control, tomato Botrytis) [1, 8]: 65* %; Test A rating (% disease control, wheat leaf rust) [2, 8]: 100* %; Test D rating (% disease control, wheat powdery mildew) [3, 8]: 72* %; Test B rating (% disease control, wheat leaf blotch) [4, 8]: 100* % |
| COc1ccc(C(O)c2c(Cl)nc(C)n2-c2c(F)cccc2Cl)c(Cl)c1 (racemic) [compound 278] | 100* % | 100* % | 97* % | 100* % |  |  |  |  |  |
| Cc1cc(F)ccc1C(O)c1c(Br)nc(C)n1-c1c(F)cc(Cl)cc1F (stereo not drawn) [compound 110] | 0* % | 96* % | 0* % | 100* % |  |  |  |  |  |
| OC(c1ccc(Cl)cc1)c1c(Cl)nc(Cl)n1-c1ccc(Cl)cc1Cl (single isomer, unassigned) [compound 87] |  |  |  |  | 60 | 91 | 48 | 100 |  |
| COc1cc(OC)cc(-n2c(C)nc(Br)c2C(O)c2c(F)cc(F)cc2F)c1 (racemic) [compound 279] | 0* % | 0* % | 0* % | 0* % |  |  |  |  |  |
| Cc1nc(Cl)c(C(O)c2ccc(F)cc2Cl)n1-c1c(F)cc(F)cc1Cl (stereo not drawn) [compound 64] | 99* % | 100* % | 93* % | 100* % |  |  |  |  |  |
